Source: publication PMC4509821 (International journal of antimicrobial agents, 2015)
Values after ≈ are worked out from the molar mass of the structure shown.

Key:
[1] = test system: Streptococcus mutans UA159; experiment: Streptococcus mutans cell growth inhibition; type: cell-based
[2] = test system: S. mutans biofilm; experiment: Streptococcus mutans biofilm formation inhibition; type: cell-based; conditions: 16 h, read-out: IC50 Biofilm
[3] = biological target: S. mutans dihydrofolate reductase (SmDHFR) (Streptococcus mutans, UniProt Q8DUI2); experiment: SmDHFR enzymatic activity assay; type: biochemical
[4] = test system: Streptococcus sanguinis SK36; experiment: Streptococcus sanguinis cell growth and biofilm formation; type: cell-based; conditions: 1.56 μM, P > 0.05
[5] = test system: Streptococcus gordonii DL1; experiment: Streptococcus gordonii cell growth and biofilm formation; type: cell-based; conditions: 1.56 μM, P > 0.05

MIC ([1]; UA159): 0.0488 µM (≈ 0.018 µg/mL) | IC50 ([1]; UA159, read-out: IC50 Growth): 42.5 ± 3.22 nM | IC50 [2]: 49.1 ± 4.1 nM | IC50 [3]: 2.2 ± 0.7 nM | Ki [3]: 1.3 ± 0.4 nM
SMILES: COc1cc(NCc2ccc3nc(N)nc(N)c3c2C)cc(OC)c1OC [TMQ, trimetrexate]
inhibition of biofilm formation of S. sanguinis [4]: did not inhibit | inhibition of biofilm formation of S. gordonii [5]: did not inhibit
